In patent publication US20250375461A1, “IDENTIFICATION OF A NEW POTENT INHIBITOR OF MYCOBACTERIAL GROWTH” (priority 2024, published 2025):
Converted amounts (≈) assume the structure as drawn. Like-named read-outs stand apart in the source and are kept apart here.

Tests used:
[1] = test system: E. coli WO0153; experiment: Microscopy of E. coli WO0153 in presence of BI.aada; assay type: cell-based
Method: (§1) In FIG. 1, […]=0.5×MIC. […] Magnification is 1000×. The compound BI.aada also has an MIC of […] against the gram-negative E. coli WO0153, which has a leaky outer membrane, and no activity against E. coli K12, which has a normal membrane. […] The stubby phenotype is similar to that observed with NAG-thiazoline (lytic transglycosylase inhibitor) with E. coli. In FIG. 3, purple: no growth; pink: bacterial growth; and MIC determined as lowest concentration that inhibits growth: 50 μM.

[2] = test system: E. coli K12; experiment: Activity against E. coli K12 (normal membrane); assay type: cell-based
Method: as §1

[3] = test system: M. avium; experiment: MIC against M. avium; assay type: cell-based; settings: Mycobacterium avium
[4] = test system: M. absescus; experiment: MIC against M. absescus; assay type: cell-based
[5] = test system: E. coli WO0153; experiment: MIC assay: E. coli WO0153 (leaky outer membrane); assay type: cell-based
Method: as §1

[6] = test system: M. smegmatis; experiment: Microscopy of M. smegmatis in presence of BI.aada; assay type: cell-based
Method: as §1

[7] = test system: M. smegmatis; experiment: MIC assay: M. smegmatis with BI.aada; assay type: cell-based; settings: Mycolicibacterium smegmatis
Method: FIG. 4, FIG. 5, and FIG. 6 show enlarged views of MIC Assay: M. smegmatis with BI.aada.
as §1

[8] = test system: B. cereus; experiment: Standard bactericidal assay (colony counts), B. cereus; assay type: cell-based
Method: The library was initially screened against all test organisms at a single concentration (250 μM) (ESIt). This high initial concentration was chosen as many soluble derivatives of PG bind to bacterial autolysins with KD values in the high micromolar range.^53 Compounds showing at least 40% inhibition in growth were selected for further investigation. […] We identified two compounds that inhibited the growth of Bacillus cereus and Bacillus subtilis in the micromolar range (FIG. 9). […] Both BI.abcb and BI.fgba were screened in a standard bactericidal assay.^54 Briefly, B. subtilis and B. cereus were grown in either the absence or presence of inhibitor (at the MIC) for 4 hours.
The cells were harvested, washed and subject to serial dilution prior to plating on nutrient broth agar.

[9] = test system: Bacillus cereus; experiment: Resazurin microtiter whole cell assay, MIC, B. cereus; assay type: cell-based
Method: Each Ugi reaction was carried out using either propargyl amine or propiolic acid as the alkyne component to provide either propionamides or N-propargyl amides as the diamide products. While Ugi-reactions can sometimes require prolonged reaction times, we identified conditions that reduced the reaction time to 4-5 hours at elevated temperature and in many cases proceeded to completion, enabling use of the Ugi product directly in the next reaction.^49-51 The Ugi-derived terminal alkynes were then subjected to a copper accelerated azide-alkyne coupling reaction using a redox couple of copper powder and copper (II) sulfate. To further facilitate synthesis of the library we simplified the purification of the compounds by using the alkyne building blocks in excess for the copper accelerated azide-alkyne coupling reaction. This ensured complete consumption of the azido sugar 1, and the unreacted alkyne residue could be easily removed using a silica plug after the reaction, eliminating the need for column chromatography. Removal of trace copper salts from the reaction was carried out by incubating the reaction solution with a commercially available copper chelating resin prior to purification using the silica plug. The library of GNTs was screened for its ability to inhibit the growth of a panel of different Gram-positive bacteria. […]

[10] = test system: E. coli; settings: NAG thiazoline treatment; cited from earlier work
[11] = test system: Gram-negative bacteria; settings: cited from earlier work

CCCCNC(=O)C(C(C)C)N(CC(c1ccccc1)c1ccccc1)C(=O)c1cn(C2OC(CO)[C@@H](O)C(O)C2NC(C)=O)nn1 (stereo partly drawn) [BI.aada]
cell morphology (microscopy) ([1]; E. coli WO0153 in presence of BI.aada): altered cell morphology | phenotype in FIG. 2 ([1]; sub-MIC treated E. coli WO153, 50 µM BI.aada, compared to control): clumping phenotype | activity against E. coli K12 [2]: no activity | MIC [3]: < 0.5 µM | MIC [4]: < 0.5 µM | MIC ([4]; Feature 15): < 0.5 µM | MIC ([5]; Escherichia coli, WO0153, read-out: MIC determined as lowest concentration that inhibits growth): 50 µM (≈ 32.5 µg/mL) | MIC ([5]; Escherichia coli, E. coli WO0153, leaky outer membrane, read-out: MIC): 70 µM (≈ 45.6 µg/mL) | MIC ([5]; Gram negative E. coli WO0153, Feature 16): 70 µM (≈ 45.6 µg/mL) | phenotype in FIG. 1 ([6]; 25 nM=0.5×MIC, magnification 1000×): aberrant division occurring along side wall | cell morphology (microscopy) ([6]; M. smegmatis in presence of BI.aada): altered cell morphology | MIC [7]: 0.05 µM (≈ 0.0325 µg/mL)

COc1ccc(C(C(=O)NCc2ccccc2)N(Cc2ccccc2)C(=O)c2cn(C3OC(CO)C(O)C(O)C3NC(C)=O)nn2)cc1 (stereo not drawn) [BI.abcb]
nature of antibacterial action ([8]; colony counts similar to controls): bacteriostatic | Colony counts for growth in the presence of compound ([8]; inhibitor at the MIC, 4 hours): 7.00±1.70×10^8 cfu mL^−1 | MIC [9]: 60 µM (≈ 39.5 µg/mL)

CC1=N[C@@H]2[C@@H](O)[C@H](O)[C@@H](CO)O[C@@H]2S1 [NAG thiazoline]
effect on E. coli cells [10]: formation of shorter cells without affecting cell viability | minimum inhibitory concentration in whole cell assays [11]: do not demonstrate a measurable minimum inhibitory concentration

CC(=O)N[C@H]1[C@H](O[C@H]2C[C@@H](C(=O)NCCS(=O)(=O)O)N[C@@H]2CO)O[C@H](CO)[C@@H](OS(=O)(=O)O)[C@@H]1O [bulgecin A]
minimum inhibitory concentration in whole cell assays [11]: do not demonstrate a measurable minimum inhibitory concentration
